{
  "source": "patent US11083709B2",
  "about": "“Compounds, compositions, and methods of increasing CFTR activity” (Proteostasis Therapeutics, Inc., priority 2015, dated 2021)",
  "note": "Structures can show the parent of a compound that is named as a salt.",
  "data": [
    {"molecular_target": "T1, ΔF508-CFTR (Homo sapiens, UniProt P13569, DEL508-508)", "T1 construct": "primary lung epithelial cells (hBEs) homozygous for the Cystic Fibrosis-causing ΔF508 mutation; endogenous in cells; host or cells: primary lung epithelial cells (hBEs) homozygous for ΔF508", "T1 sequence (P13569 with tags, fused parts or gaps DEL508-508)": "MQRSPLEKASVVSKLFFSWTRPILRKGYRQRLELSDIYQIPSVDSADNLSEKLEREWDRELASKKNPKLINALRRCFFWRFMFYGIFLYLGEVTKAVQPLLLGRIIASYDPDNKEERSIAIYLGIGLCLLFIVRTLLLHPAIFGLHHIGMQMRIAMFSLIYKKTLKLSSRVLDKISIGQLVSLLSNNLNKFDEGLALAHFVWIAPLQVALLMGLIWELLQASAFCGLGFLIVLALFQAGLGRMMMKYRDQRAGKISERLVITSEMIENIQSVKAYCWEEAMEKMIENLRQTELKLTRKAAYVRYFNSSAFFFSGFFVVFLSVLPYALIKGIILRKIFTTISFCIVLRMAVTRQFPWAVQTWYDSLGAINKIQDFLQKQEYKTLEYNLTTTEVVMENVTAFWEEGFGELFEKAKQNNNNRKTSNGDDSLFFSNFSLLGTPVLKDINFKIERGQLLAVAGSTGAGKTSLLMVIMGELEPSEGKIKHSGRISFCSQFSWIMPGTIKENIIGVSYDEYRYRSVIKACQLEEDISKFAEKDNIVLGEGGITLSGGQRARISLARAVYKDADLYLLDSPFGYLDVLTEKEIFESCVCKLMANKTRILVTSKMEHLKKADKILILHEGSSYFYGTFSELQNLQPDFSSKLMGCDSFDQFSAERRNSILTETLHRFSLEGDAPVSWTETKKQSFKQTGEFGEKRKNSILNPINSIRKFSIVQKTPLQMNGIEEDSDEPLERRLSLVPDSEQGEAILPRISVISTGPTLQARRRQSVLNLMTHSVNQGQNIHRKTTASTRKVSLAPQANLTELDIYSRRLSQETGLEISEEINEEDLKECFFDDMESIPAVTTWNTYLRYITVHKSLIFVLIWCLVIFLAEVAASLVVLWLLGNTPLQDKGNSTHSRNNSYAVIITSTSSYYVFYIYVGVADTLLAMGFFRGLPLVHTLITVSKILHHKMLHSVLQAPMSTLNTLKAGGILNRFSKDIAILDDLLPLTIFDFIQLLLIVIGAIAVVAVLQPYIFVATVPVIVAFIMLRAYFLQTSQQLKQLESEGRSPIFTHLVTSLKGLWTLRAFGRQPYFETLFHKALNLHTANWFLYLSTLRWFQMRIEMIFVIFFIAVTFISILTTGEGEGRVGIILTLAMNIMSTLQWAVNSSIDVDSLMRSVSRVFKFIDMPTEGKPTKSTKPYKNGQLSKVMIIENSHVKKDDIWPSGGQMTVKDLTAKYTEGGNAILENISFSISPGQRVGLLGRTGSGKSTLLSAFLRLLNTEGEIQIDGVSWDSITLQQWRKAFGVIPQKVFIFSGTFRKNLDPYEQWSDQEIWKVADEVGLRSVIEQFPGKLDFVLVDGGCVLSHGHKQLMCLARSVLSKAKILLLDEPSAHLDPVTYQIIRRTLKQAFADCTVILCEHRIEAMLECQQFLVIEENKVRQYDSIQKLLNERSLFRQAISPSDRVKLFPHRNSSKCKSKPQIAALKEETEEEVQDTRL", "test": "hBE equivalent current (Ieq) assay, primary lung epithelial cells homozygous for ΔF508", "assay_type": "cell-based", "conditions": "compound alone run at 10 uM, relative to VX-809 at 1 uM; 24 h treatment", "procedure": "(§1) Primary lung epithelial cells homozygous for the Cystic Fibrosis-causing ΔF508 mutation were differentiated for a minimum of 4 weeks in an air-liquid interface on Costar 24 well HTS filter plates prior to the equivalent current (Ieq) measurements. Cells were apically mucus-washed for 30 minutes 24h prior to treatment with compounds. The basolateral media was removed and replaced with media containing the compound of interest diluted to its final concentration from DMSO stocks. Treated cells were incubated at 37° C. and 5% CO2 for 24 hours. At the end of the treatment period, the media was changed to the Ieq experimental solution for 30 minutes before the experiment and plates are maintained in a CO2-free incubator during this period. The plates containing the cells were then placed in pre-warmed heating blocks at 36° C.±0.5 for 15 minutes before measurements are taken. The transepithelial voltage (VT) and conductance (GT) were measured using a custom 24 channel current clamp (TECC-24) with 24 well electrode manifold. The Ieq assay measurements were made following additions with standardized time periods: • 1. The baseline VT and GT values were measured for approximately 20 minutes. • 2. Benzamil was added to block ENaC for 15 minutes. • 3. Forskolin plus VX-770 (ivacaftor) were added to maximally activate ΔF508-CFTR for 27 minutes. • 4. Bumetanide was added to inhibit the NaK2Cl cotransporter and shut-off secretion of chloride.\n(§2) The activity data captured was the area under the curve (AUC) for the traces of the equivalent chloride current. The AUC was collected from the time of the forskolin/VX-770 addition until the inhibition by bumetanide addition. Correction in response to compound treatment was scored as the increase in the AUC for compound-treated samples over that of vehicle-treated samples.\n(§3) The results are shown below in Table 2. ++ indicates activity ≥25% run at 10 uM of VX-809 at 1 uM, + indicates activity 10 to <25% run at 10 uM of VX-809 at 1 uM, ** indicates activity ≥200% of VX-809 (1 uM) with compound at 10 uM and VX-809 at 1 uM; * indicates activity 100-200% of VX-809 (1 uM) with compound at 10 uM and VX-809 at 1 uM. ^## indicates activity ≥200% of VX-809 (3 uM) with compound at 10 uM and VX-809 at 3 uM; ^# indicates activity 100-200% of VX-809 (3 uM) with compound at 10 uM and VX-809 at 3 uM.", "values": [
      {"smiles": "COCCNC(=O)c1cc(-c2ccccc2)no1", "note": "[Example 1, N-(2-methoxyethyl)-3-phenylisoxazole-5-carboxamide]", "leq: activity relative to VX-809 (AUC of equivalent chloride current)": "++ (++ indicates activity ≥25% run at 10 uM of VX-809 at 1 uM)"},
      {"smiles": "O=C(NCC1CCCO1)c1cc(-c2ccccc2)no1", "note": "(centres unmarked) [Example 2, 3-phenyl-N-((tetrahydrofuran-2-yl)methyl)isoxazole-5-carboxamide]", "leq: activity relative to VX-809 (AUC of equivalent chloride current)": "++ (++ indicates activity ≥25% run at 10 uM of VX-809 at 1 uM)"},
      {"smiles": "O=C(NCCN1CCOCC1)c1cc(-c2ccccc2)no1", "note": "[Example 3, N-(2-morpholinoethyl)-3-phenylisoxazole-5-carboxamide]", "leq: activity relative to VX-809 (AUC of equivalent chloride current)": "++ (++ indicates activity ≥25% run at 10 uM of VX-809 at 1 uM)"},
      {"smiles": "O=C(NCCCn1ccnc1)c1cc(-c2ccccc2)no1", "note": "[Example 4, N-(3-(1H-imidazol-1-yl)propyl)-3-phenylisoxazole-5-carboxamide]", "leq: activity relative to VX-809 (AUC of equivalent chloride current)": "+ (+ indicates activity 10 to <25% run at 10 uM of VX-809 at 1 uM)"},
      {"smiles": "Cn1nccc1CCCNC(=O)c1cc(-c2ccccc2)no1", "note": "[Example 7, N-(3-(1-methyl-1H-pyrazol-5-yl)propyl)-3-phenylisoxazole-5-carboxamide]", "leq: activity relative to VX-809 (AUC of equivalent chloride current)": "++ (++ indicates activity ≥25% run at 10 uM of VX-809 at 1 uM)"},
      {"smiles": "COCCNC(=O)c1cc(-c2ccccc2)co1", "note": "[Example 8, N-(2-methoxyethyl)-4-phenylfuran-2-carboxamide]", "leq: activity relative to VX-809 (AUC of equivalent chloride current)": "+ (+ indicates activity 10 to <25% run at 10 uM of VX-809 at 1 uM)"},
      {"smiles": "O=C(NCC1CCCO1)c1cc(-c2ccccc2)co1", "note": "(centres unmarked) [Example 9, 4-phenyl-N-((tetrahydrofuran-2-yl)methyl)furan-2-carboxamide]", "leq: activity relative to VX-809 (AUC of equivalent chloride current)": "++ (++ indicates activity ≥25% run at 10 uM of VX-809 at 1 uM)"},
      {"smiles": "O=C(NCCN1CCOCC1)c1cc(-c2ccccc2)co1", "note": "[Example 10, N-(2-morpholinoethyl)-4-phenylfuran-2-carboxamide]", "leq: activity relative to VX-809 (AUC of equivalent chloride current)": "+ (+ indicates activity 10 to <25% run at 10 uM of VX-809 at 1 uM)"},
      {"smiles": "O=C(NCCCn1ccnc1)c1cc(-c2ccccc2)co1", "note": "[Example 11, N-(3-(1H-imidazol-1-yl)propyl)-4-phenylfuran-2-carboxamide]", "leq: activity relative to VX-809 (AUC of equivalent chloride current)": "++ (++ indicates activity ≥25% run at 10 uM of VX-809 at 1 uM)"},
      {"smiles": "O=C(NC1CC1)c1cc(-c2ccccc2)co1", "note": "[Example 12, N-cyclopropyl-4-phenylfuran-2-carboxamide]", "leq: activity relative to VX-809 (AUC of equivalent chloride current)": "++ (++ indicates activity ≥25% run at 10 uM of VX-809 at 1 uM)"}
    ]},
    {"molecular_target": "T1, ΔF508-CFTR", "test": "hBE equivalent current (Ieq) assay, primary lung epithelial cells homozygous for ΔF508", "assay_type": "cell-based", "conditions": "compound at 10 uM and VX-809 at 1 uM, relative to VX-809 (1 uM); 24 h treatment", "procedure": "as §1, §2, §3", "values": [
      {"smiles": "CC(OC1CCC1)c1nnc([C@H]2C[C@H](NC(=O)c3cc(-c4ccccc4)no3)C2)o1", "note": "(relative stereo) [Example 17, N-(trans-3-(5-(1-cyclobutoxyethyl)-1,3,4-oxadiazol-2-yl)cyclobutyl)-3-phenylisoxazole-5-carboxamide]", "leq: activity of compound with VX-809, % of VX-809 (AUC of equivalent chloride current)": "* (* indicates activity 100-200% of VX-809 (1 uM) with compound at 10 uM and VX-809 at 1 uM)"},
      {"smiles": "CC(OCC(F)(F)F)c1nnc(C2CC(NC(=O)c3cc(-c4ccccc4)no3)C2)o1", "note": "(single isomer, unassigned) [Example 15]", "leq: activity of compound with VX-809, % of VX-809 (AUC of equivalent chloride current)": "* (* indicates activity 100-200% of VX-809 (1 uM) with compound at 10 uM and VX-809 at 1 uM)"},
      {"smiles": "Cn1nccc1CCCNC(=O)c1cc(-c2ccccc2)no1", "note": "[Example 7, N-(3-(1-methyl-1H-pyrazol-5-yl)propyl)-3-phenylisoxazole-5-carboxamide]", "leq: activity of compound with VX-809, % of VX-809 (AUC of equivalent chloride current)": "* (* indicates activity 100-200% of VX-809 (1 uM) with compound at 10 uM and VX-809 at 1 uM)"},
      {"smiles": "O=C(NC1CC1)c1cc(-c2ccccc2)co1", "note": "[Example 12, N-cyclopropyl-4-phenylfuran-2-carboxamide]", "leq: activity of compound with VX-809, % of VX-809 (AUC of equivalent chloride current)": "* (* indicates activity 100-200% of VX-809 (1 uM) with compound at 10 uM and VX-809 at 1 uM)"},
      {"smiles": "CO[C@H](C)c1nnc([C@H]2C[C@H](NC(=O)c3cc(-c4ccccc4)no3)C2)o1", "note": "[Example 14, N-(trans-3-(5-((R)-1-methoxyethyl)-1,3,4-oxadiazol-2-yl)cyclobutyl)-3-phenylisoxazole-5-carboxamide]", "leq: activity of compound with VX-809, % of VX-809 (AUC of equivalent chloride current)": "* (* indicates activity 100-200% of VX-809 (1 uM) with compound at 10 uM and VX-809 at 1 uM)"},
      {"smiles": "C[C@@H](OCC1CN(C)C1)c1nnc([C@H]2C[C@H](NC(=O)c3cc(-c4ccccc4)no3)C2)o1", "note": "[Example 20, N-(trans-3-(5-((R)-1-((1-methylazetidin-3-yl)methoxy)ethyl)-1,3,4-oxadiazol-2-yl)cyclobutyl)-3-phenylisoxazole-5-carboxamide]", "leq: activity of compound with VX-809, % of VX-809 (AUC of equivalent chloride current)": "* (* indicates activity 100-200% of VX-809 (1 uM) with compound at 10 uM and VX-809 at 1 uM)"},
      {"smiles": "CN1CC(c2nnc([C@H]3C[C@H](NC(=O)c4cc(-c5ccccc5)no4)C3)o2)C1", "note": "[Example 21, N-(trans-3-(5-(1-methylazetidin-3-yl)-1,3,4-oxadiazol-2-yl)cyclobutyl)-3-phenylisoxazole-5-carboxamide trifluoroacetate]", "leq: activity of compound with VX-809, % of VX-809 (AUC of equivalent chloride current)": "* (* indicates activity 100-200% of VX-809 (1 uM) with compound at 10 uM and VX-809 at 1 uM)"},
      {"smiles": "O=C(NC1CC(c2nnc(C3COC3)o2)C1)c1cc(-c2ccccc2)no1", "note": "(stereo not drawn) [Example 22, N-trans-3-(5-(oxetan-3-yl)-1,3,4-oxadiazol-2-yl)cyclobutyl)-3-phenylisoxazole-5-carboxamide]", "leq: activity of compound with VX-809, % of VX-809 (AUC of equivalent chloride current)": "* (* indicates activity 100-200% of VX-809 (1 uM) with compound at 10 uM and VX-809 at 1 uM)"},
      {"smiles": "O=C(N[C@H]1C[C@H](c2nnc(C3CS(=O)(=O)C3)o2)C1)c1cc(-c2ccccc2)no1", "note": "[Example 23, N-(trans-3-(5-(1,1-dioxidothietan-3-yl)-1,3,4-oxadiazol-2-yl)cyclobutyl)-3-phenylisoxazole-5-carboxamide]", "leq: activity of compound with VX-809, % of VX-809 (AUC of equivalent chloride current)": "* (* indicates activity 100-200% of VX-809 (1 uM) with compound at 10 uM and VX-809 at 1 uM)"},
      {"smiles": "CN1CCC(N2CC(c3nnc(C4CC(NC(=O)c5cc(-c6ccccc6)no5)C4)o3)C2)CC1", "note": "(stereo not drawn) [Example 24, N-cis-(3-(5-(1-(1-methylpiperidin-4-yl)azetidin-3-yl)-1,3,4-oxadiazol-2-yl)cyclobutyl)-3-phenylisoxazole-5-carboxamide]", "leq: activity of compound with VX-809, % of VX-809 (AUC of equivalent chloride current)": "* (* indicates activity 100-200% of VX-809 (1 uM) with compound at 10 uM and VX-809 at 1 uM)"},
      {"smiles": "O=C(N[C@H]1C[C@H](c2nnc(C3CN(CC4CCC4)C3)o2)C1)c1cc(-c2ccccc2)no1", "note": "[Example 27, N-(trans-3-(5-(1-(cyclobutylmethyl)azetidin-3-yl)-1,3,4-oxadiazol-2-yl)cyclobutyl)-3-phenylisoxazole-5-carboxamide]", "leq: activity of compound with VX-809, % of VX-809 (AUC of equivalent chloride current)": "* (* indicates activity 100-200% of VX-809 (1 uM) with compound at 10 uM and VX-809 at 1 uM)"},
      {"smiles": "O=C(N[C@H]1C[C@@H](n2nncc2CO)C1)c1cc(-c2ccccc2)no1", "note": "[Example 28, N-(cis-3-(5-(hydroxymethyl)-1H-1,2,3-triazol-1-yl)cyclobutyl)-3-phenylisoxazole-5-carboxamide]", "leq: activity of compound with VX-809, % of VX-809 (AUC of equivalent chloride current)": "** (** indicates activity ≥200% of VX-809 (1 uM) with compound at 10 uM and VX-809 at 1 uM)"},
      {"smiles": "O=C(N[C@H]1C[C@@H](n2cc(CO)nn2)C1)c1cc(-c2ccccc2)no1", "note": "[Example 29, N-(cis-3-(4-(hydroxymethyl)-1H-1,2,3-triazol-1-yl)cyclobutyl)-3-phenylisoxazole-5-carboxamide]", "leq: activity of compound with VX-809, % of VX-809 (AUC of equivalent chloride current)": "** (** indicates activity ≥200% of VX-809 (1 uM) with compound at 10 uM and VX-809 at 1 uM)"},
      {"smiles": "C[C@@H](O)c1nnc([C@H]2C[C@H](NC(=O)c3cc(-c4ccc(F)cc4)no3)C2)o1", "note": "[Example 36, 3-(4-fluorophenyl)-N-(trans-3-(5-((R)-1-hydroxyethyl)-1,3,4-oxadiazol-2-yl)cyclobutyl)isoxazole-5-carboxamide]", "leq: activity of compound with VX-809, % of VX-809 (AUC of equivalent chloride current)": "* (* indicates activity 100-200% of VX-809 (1 uM) with compound at 10 uM and VX-809 at 1 uM)"},
      {"smiles": "C[C@@H](O)c1nnc(CC2CC(NC(=O)c3cc(-c4ccccc4)no3)C2)o1", "note": "(stereo partly drawn) [Example 37, N-((1S,3s)-3-((5-((R)-1-hydroxyethyl)-1,3,4-oxadiazol-2-yl)methyl)cyclobutyl)-3-phenylisoxazole-5-carboxamide]", "leq: activity of compound with VX-809, % of VX-809 (AUC of equivalent chloride current)": "** (** indicates activity ≥200% of VX-809 (1 uM) with compound at 10 uM and VX-809 at 1 uM)"},
      {"smiles": "C[C@@H](O)c1nnc(CC2CC(NC(=O)c3cc(-c4ccc(F)cc4)no3)C2)o1", "note": "(stereo partly drawn) [Example 40, 3-(4-Fluorophenyl)-N-[(1r,3r)-3-([5-[(1R)-1-hydroxyethyl]-1,3,4-oxadiazol-2-yl]methyl)cyclobutyl]-1,2-oxazole-5-carboxamide]", "leq: activity of compound with VX-809, % of VX-809 (AUC of equivalent chloride current)": "** (** indicates activity ≥200% of VX-809 (1 uM) with compound at 10 uM and VX-809 at 1 uM)"}
    ]}
  ]
}
